In article PMC3156125, “Reconstitution of the Costunolide Biosynthetic Pathway in Yeast and Nicotiana benthamiana” (PLoS ONE, 2011):

What was measured:
Assay type in all cases: cell-based
CiCOS = molecular target: T1, CiCOS (Cichorium intybus, UniProt G3GBK0); assay: yeast co-expression, GC-MS and UPLC-MRM-MS; conditions: WAT11 yeast with TpGAS and CiGAO; substrate formed in situ; HEPES or MOPS pH 7.5, 30 °C; also N. benthamiana transient expression
T1 construct: gene CYP71BL3; full-length cDNA in pYEDP60, WAT11 yeast, co-expressed with TpGAS and CiGAO; also N. benthamiana
T1 sequence (G3GBK0 1-494): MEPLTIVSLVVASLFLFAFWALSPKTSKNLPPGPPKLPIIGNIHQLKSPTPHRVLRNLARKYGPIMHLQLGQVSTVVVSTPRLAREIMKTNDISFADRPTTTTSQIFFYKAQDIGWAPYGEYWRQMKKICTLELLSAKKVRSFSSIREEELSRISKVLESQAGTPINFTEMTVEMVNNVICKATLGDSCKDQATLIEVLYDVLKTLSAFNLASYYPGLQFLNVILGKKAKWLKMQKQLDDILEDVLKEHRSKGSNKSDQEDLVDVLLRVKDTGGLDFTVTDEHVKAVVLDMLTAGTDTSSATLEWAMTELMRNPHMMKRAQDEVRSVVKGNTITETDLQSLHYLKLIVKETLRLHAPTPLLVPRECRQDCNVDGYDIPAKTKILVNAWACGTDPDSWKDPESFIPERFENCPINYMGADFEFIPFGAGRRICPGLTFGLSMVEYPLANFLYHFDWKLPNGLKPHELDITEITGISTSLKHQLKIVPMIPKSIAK

CiGAO [1] = molecular target: T2, CiGAO (Cichorium intybus, UniProt D5JBW8); assay: yeast co-expression, GC-MS; conditions: WAT11 yeast with TpGAS; detected as elematrien-12-oic acid after heat rearrangement
T2 construct: cDNA from chicory library, no terminal tags, pESC-Trp in WAT11 yeast with TpGAS
T2 sequence (D5JBW8 1-488): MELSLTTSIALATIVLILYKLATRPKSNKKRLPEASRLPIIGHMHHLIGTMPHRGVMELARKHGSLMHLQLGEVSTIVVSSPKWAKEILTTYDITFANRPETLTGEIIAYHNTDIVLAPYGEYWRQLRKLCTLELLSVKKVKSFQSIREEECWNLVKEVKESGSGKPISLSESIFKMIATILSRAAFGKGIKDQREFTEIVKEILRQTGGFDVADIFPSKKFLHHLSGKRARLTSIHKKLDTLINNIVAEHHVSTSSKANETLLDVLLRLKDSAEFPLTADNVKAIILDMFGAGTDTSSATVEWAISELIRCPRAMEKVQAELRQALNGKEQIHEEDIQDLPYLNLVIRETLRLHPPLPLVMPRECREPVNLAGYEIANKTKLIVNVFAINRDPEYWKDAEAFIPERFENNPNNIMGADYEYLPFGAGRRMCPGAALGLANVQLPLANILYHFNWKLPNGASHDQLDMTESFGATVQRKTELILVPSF

CiGAO [2] = molecular target: T2, CiGAO; assay: N. benthamiana co-infiltration, headspace GC-MS; conditions: with mTpGAS; substrate formed in situ
CiGAS-l (CiGAS-long) = molecular target: T3, CiGAS-l (CiGAS-long) (Cichorium intybus, UniProt Q8LSC3); assay: yeast culture extract, GC-MS; conditions: endogenous farnesyl diphosphate
T3 sequence (Q8LSC3 1-583): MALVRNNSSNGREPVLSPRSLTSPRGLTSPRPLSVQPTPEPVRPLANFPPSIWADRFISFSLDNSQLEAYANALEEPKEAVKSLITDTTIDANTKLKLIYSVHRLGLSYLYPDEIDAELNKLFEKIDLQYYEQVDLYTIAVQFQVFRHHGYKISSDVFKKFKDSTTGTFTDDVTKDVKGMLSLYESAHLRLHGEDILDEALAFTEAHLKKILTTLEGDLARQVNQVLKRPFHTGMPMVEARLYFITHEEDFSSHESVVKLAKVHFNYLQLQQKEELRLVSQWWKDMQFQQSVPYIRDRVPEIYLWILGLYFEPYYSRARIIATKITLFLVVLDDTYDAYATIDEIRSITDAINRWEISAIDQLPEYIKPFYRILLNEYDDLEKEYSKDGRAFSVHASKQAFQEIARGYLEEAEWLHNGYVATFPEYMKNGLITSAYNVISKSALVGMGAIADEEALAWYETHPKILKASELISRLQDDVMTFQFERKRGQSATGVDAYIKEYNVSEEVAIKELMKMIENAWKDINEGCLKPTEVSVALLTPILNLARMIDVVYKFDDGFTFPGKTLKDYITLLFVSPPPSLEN

TpGAS = molecular target: T4, TpGAS (Tanacetum parthenium, UniProt F8UL80); assay: yeast culture extract, GC-MS; conditions: endogenous farnesyl diphosphate; also N. benthamiana headspace
T4 construct: gene GAS
T4 sequence (F8UL80 1-559): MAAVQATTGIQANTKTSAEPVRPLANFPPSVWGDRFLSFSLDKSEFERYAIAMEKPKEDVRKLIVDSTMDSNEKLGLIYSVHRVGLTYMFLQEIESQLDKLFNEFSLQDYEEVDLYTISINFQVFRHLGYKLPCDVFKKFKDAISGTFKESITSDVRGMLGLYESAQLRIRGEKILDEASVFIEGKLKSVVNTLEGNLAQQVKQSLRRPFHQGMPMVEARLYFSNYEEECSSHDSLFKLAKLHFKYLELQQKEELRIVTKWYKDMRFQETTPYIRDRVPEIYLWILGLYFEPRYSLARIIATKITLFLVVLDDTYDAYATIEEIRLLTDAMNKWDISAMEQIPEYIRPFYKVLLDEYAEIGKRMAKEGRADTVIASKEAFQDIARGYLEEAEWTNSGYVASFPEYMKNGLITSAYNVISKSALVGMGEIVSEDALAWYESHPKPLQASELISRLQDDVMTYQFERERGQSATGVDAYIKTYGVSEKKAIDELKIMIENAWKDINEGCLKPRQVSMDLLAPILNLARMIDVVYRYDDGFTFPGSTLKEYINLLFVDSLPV

## C=C1C(=O)O[C@@H]2/C=C(\C)CC/C=C(\C)CC[C@@H]12 [costunolide]
CiCOS
  yeast co-expression, GC-MS and UPLC-MRM-MS: encodes an enzymatic activity which was able to produce costunolide

## C=C(C(=O)O)[C@H]1C/C=C(\C)CC/C=C(\C)CC1 [germacra-1(10),4,11(13)-trien-12-oic acid]
CiGAO [1]
  yeast co-expression, GC-MS: enzymatic activity was confirmed in our yeast system by co-expression of TpGAS and CiGAO

## C=C(C)[C@H]1C/C=C(\C)CC/C=C(\C)CC1 [germacrene A]
CiGAO [2]
  N. benthamiana co-infiltration, headspace GC-MS: CiGAO can efficiently catalyse the conversion of the product of mTpGAS, germacrene A
CiGAS-l (CiGAS-long)
  yeast culture extract, GC-MS: Germacrene A production in yeast. A yeast culture transformed by either CiGAS-long
TpGAS
  yeast culture extract, GC-MS: yeast culture expressing TpGAS had an approximately three fold higher activity
